Measured values taken from patent publication US9538745B2, “Methods for the cryopreservation of cells” (The General Hospital Corporation, priority 2006, dated 2017).
Like-named read-outs stand apart in the source and are kept apart here.

Assays:
[1] = test system: primary rat hepatocytes; assay type: cell-based
Method: The cell viability of hepatocytes was determined immediately post-cryopreservation in quartz micro-capillaries (QMC) in the presence of either no CPA; 0.3 M sucrose; 1.5 M 1,2-propanediol (PROH); 1.5 M PROH and 0.3 M sucrose; or 2.0 M PROH and […]. The number of viable cells was determined in both vitrified samples as well as non-vitrified controls (i.e., no freezing). Cell viability was quantified by the exclusion of trypan blue. […] There was only ˜35% survival for cells loaded with 1.5 M PROH prior to cryopreservation. Sucrose (0.3 M) was then added to the cryopreservation solution with 1.5-2 M PROH. […] When 0.3 M sucrose was added to the cryopreservation solution, the immediate viability jumped to ˜75%.

[2] = test system: R1 murine ES cell line; test: Attachment efficiency of ES cells post vitrification; assay type: cell-based; details: 0.5 M trehalose, 2 M PROH, or both; QMC plunged into liquid nitrogen; day 1; FIG. 15
Excerpt: (§1) For the purpose of evaluating the maintenance of embryonic stem cell pluripotency, a green fluorescent protein (GFP)-reporter cell system was used. The R1 murine ES cell line which expresses GFP under control of the Oct4 promoter was kindly provided by Andras Nagy (U. Toronto)(Nagy et al., Proc. Nat. Acad. Sci. USA 90:8424, 1993). The ES cell maintenance media consisted of Knockout DMEM+15% Knockout Serum Replacement (Invitrogen, Carlsbad, Calif.) containing 1000 U/ml LIF (Chemicon, Temecula, Calif.). Feeder layer-free ES cells were continually passaged in 0.1% gelatin-coated 75 cm^2 flasks in 5% CO2 humidified air at 37° C.
(§2) On the day of experiment, the attached cells were lightly trypsinized for 3-5 minutes and collected. The cells were pelleted at 100×g for 5 minutes and resuspended in cold stem cell media supplemented with 1.5 M 1,2-propanediol (Sigma, St Louis, Mo.) and incubated on ice for 10 minutes. […]
Cell attachment and growth was determined by counting the number of cells per field under a 10× objective. […] The attachment efficiency was calculated as the ratio of the total number of cells per field of a cryopreserved sample to that of the control non-frozen sample at day 1. To assess the proliferation of the attached cells, the total number of cells per field was further monitored for 4 days.

[3] = Vitrification of CPA laden solutions: visible opacity after plunging into liquid nitrogen; assay type: physicochemical
Excerpt: One convenient way for determining non-vitrification is the appearance of opacity as a result of ice formation when freezing solutions in a straw. If there is no visible opacity, it is called apparent vitrification. Although opacity could be easily identified in the traditional plastic straw using the naked eye, it is very difficult to do so for the quartz micro-capillary due to its small dimension. Therefore, an experimental setup shown in FIG. 10 was designed for visualization of opacity during cooling by directing two focused lights on the capillary held against a dark background for all the devices shown in FIG. 1 except the stainless steel micro-capillary. […] This setup was used to determine the threshold (minimum) CPA concentration required to completely avoid opacity during cooling. […] Various total CPA concentrations from 12% to 30% by volume with 2% increments were studied using both the open pulled straw and the thin walled quartz micro-capillary. Since 0.2-1 M sucrose or trehalose has been used in essentially all studies for cryopreservation of mammalian oocytes by both slow freezing and vitrification, further studies were also performed using the quartz micro-capillary for solutions with 0.5 M sucrose or trehalose plus 1.5 M, 2.0 M, and 2.5 M PROH, respectively. The solutions can be loaded into the open pulled straw and quartz micro-capillaries by capillary action while it can be expelled out of the capillaries by using a micro-syringe attached with a soft PEP polymer needle tip to push from the end of the capillaries with a bigger opening.

[4] = Critical cooling rate to achieve vitrification (Vcc) from Boutron's semi-empirical theory and DSC constant K4; assay type: physicochemical
Excerpt: The critical cooling rate to achieve vitrification (Vcc) is a function of the concentration of cryoprotectant. It has been extensively studied in the case of 1,2-propanediol and other alcohols with relevance in cryobiology, although mainly in the range of cooling rates achievable by differential scanning calorimetry (DSC) techniques. However, it is possible to obtain estimates of the critical cooling rates at other […]. The presence of sugars in equimolar concentrations has shown to have no effect on Vcc in the case of monosaccharides and little effect in the case of sucrose for the concentration used in these studies (0.3 M)(Kuleshova et al., Cryobiology 38:199-130, 1999). The Vcc can be inferred from Boutron's semi-empirical theory of glass forming tendency (Boutron, Cryobiology 23:88-102, 1986); it is given by:
To is the initial temperature of crystallization and xg is the amount of ice formed at the critical cooling rate. Many studies in the literature consider a solution to be vitrified when xg≦10^−6 (Liu and McGrath, Proc. 2005 IEEE Eng. Med. Biol. 27th Ann. Conference, p. 7501-7504, 2005). K4 is a constant dependent of the solution and can be determined by DSC. Although there is not data for K4 in the available literature for our solution, some estimation can be done. The values of K4 for 40%, 37.5% and 35% (w/w) of aqueous solutions of 1,2 propanediol are 24.1° C./min, 54.1° C./min and 151° C./min (Ren et al., Cryobiology 31:47-56, 1994). These values of K4 give rise to Vcc values of 8.0×10^2° C./min, 1.8×10^3° C./min and 5.0×10^3° C./min, respectively. So, a tentative value of […] for 1.8 M of 1,2-propanediol is ≈10^4° C./min. […] The exponential fitting of the data is justified by the theory (Ren et al., supra).

[5] = Ren et al., cited from earlier work
[6] = test system: R1 murine ES cell line; test: Pluripotent properties of ES cells post vitrification (Oct-4, SSEA-1, alkaline phosphatase); assay type: cell-based; details: 2 M 1,2-propanediol; ultra-fast cooling in QMC
Excerpt: as §1
as §2, with “minutes. The cells were then spun down at 100×g for 3-5 minutes and resuspended in 1 ml first vitrification solution for 10 minutes. The cells were then spun down at 100×g for 3-5 minutes and resuspended in the second solution at 10×10^6/ml for another 10 minutes.” for “minutes.”

[7] = both open pulled straw and quartz micro-capillary, FIG. 14

In the case of `OC[C@H]1O[C@@](CO)(O[C@H]2O[C@H](CO)[C@@H](O)[C@H](O)[C@H]2O)[C@@H](O)[C@@H]1O` [sucrose], the “cell survival / immediate viability (exclusion of trypan blue)” value [1] is reported as “less than 10%”.
With `OC[C@H]1O[C@H](O[C@H]2O[C@H](CO)[C@@H](O)[C@H](O)[C@H]2O)[C@H](O)[C@@H](O)[C@@H]1O` [trehalose] the “attachment efficiency (normalized to control)” value [2] was “Only a minimum amount of cells can attach”.
In the case of `OCCO` [Ethylene glycol (EG), ethylene glycol], the “threshold concentration for the complete absence of opacity” value [3] is reported as about 4 M.
In the case of `CC(O)CO` (centres unmarked) [1,2-propanediol], the “K4, tentative value” ([4]; 1.8 M) is reported as “≈ 10^4 ° C./min”, the “Vcc (critical cooling rate to achieve vitrification)” value (“Vcc” below) ([4]; 35% (w/w) aqueous solution) is reported as 5.0×10^3 ° C./min and the “Vcc” value ([4]; 37.5% (w/w) aqueous solution) is reported as 1.8×10^3 ° C./min. The “Vcc” value ([4]; 40% (w/w) aqueous solution) was 8.0×10^2 ° C./min, the “appearance of solution in quartz micro-capillary after plunging into liquid nitrogen” value (“appearance of solution” for short) ([3]; 1 M 1,2-propanediol (in FHM)) was “opaque” and the “appearance of solution” value ([3]; 2 M 1,2-propanediol (in FHM)) was “clear”. For the same compound, the “appearance of solution” value ([3]; 7% v 1,2-propanediol in FHM media, FIG. 10) was “whitish appearance”, the “appearance of solution” value ([3]; 14% v 1,2-propanediol in FHM media, FIG. 10) was “clear appearance” and the “threshold concentration lower than that of ethylene glycol (EG)” value [3, 7] was about 5 % v. The “threshold concentration lower than that of the combination of EG and PROH in a 1:1 ratio” value [3, 7] was 2.5 % v, the “threshold concentration for the complete absence of opacity” value ([3]; micro-capillary) was about 2 M and the K4 ([5]; 35% (w/w) aqueous solution) was 151 ° C./min. For the same compound, the K4 ([5]; 37.5% (w/w) aqueous solution) was 54.1 ° C./min, the K4 ([5]; 40% (w/w) aqueous solution) was 24.1 ° C./min and the “cell survival / immediate viability (exclusion of trypan blue)” value [1] was about 35%. For the same compound, the “pluripotent properties post-vitrification (Oct-4, SSEA-1, alkaline phosphatase staining)” value [6] was “retained their pluripotent properties” and the “attachment efficiency (normalized to control)” value [2] was “Only a minimum amount of cells can attach”.
